In patent publication US20250326748A1, “COMPOUNDS AND METHODS FOR MODULATING SPLICING” (REMIX THERAPEUTICS INC., priority 2022, published 2025):
Structures can show the parent of a compound that is named as a salt. Where two headings read alike, the source gives them in different places.

What was measured:
HTT mRNA = experiment: Splicing RT-qPCR assay, HTT canonical (CJ) and alternative (AJ) junction mRNA; assay type: cell-based, human; conditions: for IC50: canonical junction mRNA; for AC50: alternative junction mRNA, read-out: HTT AJ (AC50, increase in AJ mRNA)
In short: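 Treatment of A673 or K562 cultures with compounds (eleven-point titration, highest final 10 uM, ≤0.25% DMSO) ran one day at 37 °C. Afterwards cells were lysed directly in the well, and cDNA synthesis coupled with qPCR measured CJ and AJ isoform levels against a reference transcript.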

HiBiT-tagged HTT protein = experiment: HiBiT protein abundance assay, HTT (K562 HiBiT knock-in); assay type: cell-based, human; conditions: HiBiT knock-in cells, 24 hours
In short: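 Endogenously HiBiT-tagged K562 knock-in lines treated 24 h at 37 °C with 10-point 3-fold dilutions (top 10 μM final, DMSO ≤0.25%) in IMDM+1% FBS. Lytic Nano-Glo luminescence normalized to DMSO and unmodified K562 controls; four-parameter fit gives 50%-abundance concentration (IC50).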

K562 cells = experiment: Cell viability, Cell Titer Glo 2.0 assay, K562; conditions: 72 hours
Method: Compounds described herein were screened for toxicity in K562 (human chronic myelogenous leukemia) and SH-SY5Y (human neuroblastoma) cells using a Cell Titer Glo 2.0 assay.
• Promega CellTiter-Glo® 2.0 Cell Viability Assay (cat #G9241) • Corning 384-well TC-treated microplates (cat #3570)
Cells were plated at 500 cells/well (K562 cells) in 45 μL of IMDM supplemented with 10% FBS in a 384-well opaque plate. Wells containing only medium were used as a blank control. Test compounds (e.g., compounds of Formula (I) or (II)) were first serially diluted in DMSO then diluted 1:100 with IMDM+10% FBS. The final concentration of DMSO was 0.1% in each well. The cells were incubated for 72 hours at 37° C. and 5% CO2 before assaying with Cell Titer Glo 2.0 reagent.

Target C = experiment: HiBiT protein abundance assay, Target C (K562 HiBiT knock-in); assay type: cell-based, human; conditions: HiBiT knock-in cells, 24 hours
In short: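 K562 HiBiT knock-in cells (10000/well) in IMDM + 1% FBS were treated for 24 h at 37° C. with a 10-point 3-fold dilution series (top 10 μM final), with DMSO ≤0.25%. Unmodified K562 served as baseline. HiBiT lytic luminescence was normalized to controls, and IC50 was interpolated at 50% from a four-parameter fit.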

[1] = Homo sapiens, 24 h, RT-qPCR, A673 or K562 cells, 24 hours treatment, read-out: HTT CJ (IC50, decrease in CJ mRNA)
[2] = Homo sapiens, qPCR panel, read-out: HTT CJ (decrease in CJ mRNA levels, IC50)
[3] = Homo sapiens, RT-qPCR, A673 or K562 cells, 24 hours treatment

`Cn1cc2cc(-c3cc(Cl)c4cc(N5CCN6CCCC6C5)cnc4n3)cc(F)c2n1` (stereo not drawn) [Compound 216, 4-chloro-2-(7-fluoro-2-methylindazol-5-yl)-6-{hexahydro-1H-pyrrolo[1,2-a]pyrazin-2-yl}-1,8-naphthyridine trifluoroacetic acid] showed an IC50 (HTT mRNA; [1]) of 1000 to 10000 nM, an IC50 (HTT mRNA; [2]) of 1000 to 10000 nM and an AC50 (HTT mRNA; [3]) of 1000 to 10000 nM. The IC50 (HiBiT-tagged HTT protein) was 1000 to 10000 nM, the “Effect on Cell Viability, K562” value (K562 cells) was “B (100-1000 nM)” and the IC50 (Target C) was 1000 to 10000 nM.
`Cc1cn2nc(-c3ccc4cc(NC5CCNCC5)cnc4n3)cc(C)c2n1` [Compound 210, 7-{2,8-dimethylimidazo[1,2-b]pyridazin-6-yl}-N-(piperidin-4-yl)-1,8-naphthyridin-3-amine; trifluoroacetic acid] showed an IC50 (HTT mRNA; [1]) of 1000 to 10000 nM, an IC50 (HTT mRNA; [2]) of 1000 to 10000 nM and an AC50 (HTT mRNA; [3]) of 1000 to 10000 nM. The IC50 (HiBiT-tagged HTT protein) was 1000 to 10000 nM, the “Effect on Cell Viability, K562” value (K562 cells) was “C (1000-9999 nM)” and the IC50 (Target C) was 1000 to 10000 nM.
Work on `Cc1c(O)c(-c2cc(Cl)c3cc(N(C)C4CCNC4)cnc3n2)cc2cn(C)nc12` (stereo not drawn) [Compound 204, 5-[4-chloro-6-(367pyrrolidine-3-ylamino)-1,8-naphthyridin-2-yl]-2,7-dimethylindazol-6-ol] yielded an IC50 (HTT mRNA; [1]) of 1000 to 10000 nM, an IC50 (HTT mRNA; [2]) of 1000 to 10000 nM and an AC50 (HTT mRNA; [3]) of 1000 to 10000 nM. For the same molecule, the IC50 (HiBiT-tagged HTT protein) was 100 to 1000 nM, the “Effect on Cell Viability, K562” value (K562 cells) was “B (100-1000 nM)” and the IC50 (Target C) was 1000 to 10000 nM.
`C[C@H]1CN(c2cnc3nc(-c4cc5cn(C)nc5cc4O)cc(Cl)c3c2)C[C@H](C)N1` [Compound 242] showed an IC50 (HTT mRNA; [1]) of 100 to 1000 nM, an IC50 (HTT mRNA; [2]) of 100 to 1000 nM and an AC50 (HTT mRNA; [3]) of 100 to 1000 nM. For the same molecule, the IC50 (HiBiT-tagged HTT protein) was 100 to 1000 nM, the “Effect on Cell Viability, K562” value (K562 cells) was “A (<100 nM)” and the IC50 (Target C) was 100 to 1000 nM.
In the case of `COc1nc(-c2cc3cn(C)nc3c(C)c2O)nc2ncc(N3CCC(N(C)C)CC3)cc12` [Compound 163, 5-{6-[4-(dimethylamino)piperidin-1-yl]-4-methoxypyrido[2,3-d]pyrimidin-2-yl}-2,7-dimethylindazol-6-ol], the IC50 (HTT mRNA; [1]) is reported as 1000 to 10000 nM, the IC50 (HTT mRNA; [2]) is reported as 1000 to 10000 nM and the AC50 (HTT mRNA; [3]) is reported as over 10000 nM. The IC50 (HiBiT-tagged HTT protein) was 1000 to 10000 nM, the “Effect on Cell Viability, K562” value (K562 cells) was “B (100-1000 nM)” and the IC50 (Target C) was over 10000 nM.
`Cc1c(O)c(-c2ncc3cc(N4CC[C@@H](N)C4)cnc3n2)cc2cn(C)nc12` [Compound 159, (R)-5-(6-(3-aminopyrrolidin-1-yl)pyrido[2,3-d]pyrimidin-2-yl)-2,7-dimethyl-2H-indazol-6-ol 2,2,2-trifluoroacetate] gave an IC50 (HTT mRNA; [1]) of under 100 nM, an IC50 (HTT mRNA; [2]) of under 100 nM and an AC50 (HTT mRNA; [3]) of 100 to 1000 nM. The IC50 (HiBiT-tagged HTT protein) was under 100 nM, the “Effect on Cell Viability, K562” value (K562 cells) was “B (100-1000 nM)” and the IC50 (Target C) was 100 to 1000 nM.
For `C[C@@H]1CN(c2cnc3nc(-c4cc5cn(C)nc5cc4O)cc(Cl)c3c2)C[C@@H](C)N1` [Compound 243, 5-{4-chloro-6-[(3R,5R)-3,5-dimethylpiperazin-1-yl]-1,8-naphthyridin-2-yl}-2-methylindazol-6-ol hydrochloride], the IC50 (HTT mRNA; [1]) was 1000 to 10000 nM, the IC50 (HTT mRNA; [2]) was 1000 to 10000 nM and the AC50 (HTT mRNA; [3]) was 1000 to 10000 nM. For the same molecule, the IC50 (HiBiT-tagged HTT protein) was 100 to 1000 nM, the “Effect on Cell Viability, K562” value (K562 cells) was “B (100-1000 nM)” and the IC50 (Target C) was 1000 to 10000 nM.
Work on `Cc1nc2c(C)c(O)c(-c3cnc4cc(N5CCC(NC6CC6)C5)ccc4n3)cc2o1` (stereo not drawn) [Compound 182, 6-[6-[3-(cyclopropylamino)pyrrolidin-1-yl]quinoxalin-2-yl]-2,4-dimethyl-1,3-benzoxazol-5-ol] yielded an IC50 (HTT mRNA; [1]) of under 100 nM, an IC50 (HTT mRNA; [2]) of under 100 nM and an AC50 (HTT mRNA; [3]) of under 100 nM. The IC50 (HiBiT-tagged HTT protein) was under 100 nM, the “Effect on Cell Viability, K562” value (K562 cells) was “A (<100 nM)” and the IC50 (Target C) was under 100 nM.
`Cn1cc2cc(-c3cc(Cl)c4cc(N5CCNCC5)cnc4n3)cc(F)c2n1` [Compound 103] showed an IC50 (HTT mRNA; [1]) of 100 to 1000 nM, an IC50 (HTT mRNA; [2]) of 100 to 1000 nM and an AC50 (HTT mRNA; [3]) of 1000 to 10000 nM. The IC50 (HiBiT-tagged HTT protein) was 100 to 1000 nM, the “Effect on Cell Viability, K562” value (K562 cells) was “B (100-1000 nM)” and the IC50 (Target C) was 100 to 1000 nM.
Work on `Cn1cc2cc(-c3cnc4cc(N5CC[C@H](NC6CC6)C5)ccc4n3)c(O)c(F)c2n1` [Compound 176, 5-[6-[(3S)-3-(cyclopropylamino)318quinoxaline-1-yl]318quinoxaline-2-yl]-7-fluoro-2-methyl-indazol-6-ol] yielded an IC50 (HTT mRNA; [1]) of under 100 nM, an IC50 (HTT mRNA; [2]) of under 100 nM and an AC50 (HTT mRNA; [3]) of under 100 nM. The IC50 (HiBiT-tagged HTT protein) was under 100 nM, the “Effect on Cell Viability, K562” value (K562 cells) was “A (<100 nM)” and the IC50 (Target C) was under 100 nM.
`Cn1cc2cc(-c3cnc4nc(N5CCC(NC6CC6)C5)ccc4n3)c(O)c(F)c2n1` (stereo not drawn) [Compound 178, 5-[6-[3-(cyclopropylamino)pyrrolidin-1-yl]pyrido[2,3-b]pyrazin-2-yl]-7-fluoro-2-methyl-indazol-6-ol] was tested, and the IC50 (HTT mRNA; [1]) was under 100 nM, the IC50 (HTT mRNA; [2]) was under 100 nM and the AC50 (HTT mRNA; [3]) was 100 to 1000 nM. The IC50 (HiBiT-tagged HTT protein) was 100 to 1000 nM, the “Effect on Cell Viability, K562” value (K562 cells) was “B (100-1000 nM)” and the IC50 (Target C) was 100 to 1000 nM.
`Cc1c(O)c(-c2ccc3nc(N4CCC(N(C)C)CC4)cnc3n2)cc2cn(C)nc12` [Compound 198] showed an IC50 (HTT mRNA; [1]) of 1000 to 10000 nM, an IC50 (HTT mRNA; [2]) of under 100 nM and an AC50 (HTT mRNA; [3]) of over 10000 nM. For the same molecule, the IC50 (HiBiT-tagged HTT protein) was 1000 to 10000 nM, the “Effect on Cell Viability, K562” value (K562 cells) was “B (100-1000 nM)” and the IC50 (Target C) was 1000 to 10000 nM.
`CN[C@@H]1CCN(c2cnc3nc(-c4cc(F)c5nc(C)cn5c4)ncc3c2)C1` [Compound 202, (3R)-1-(2-{8-fluoro-2-methylimidazo[1,2-a]pyridin-6-yl}pyrido[2,3-d]pyrimidin-6-yl)-N-methylpyrrolidin-3-amine] was tested, and the IC50 (HTT mRNA; [1]) was 100 to 1000 nM, the IC50 (HTT mRNA; [2]) was 100 to 1000 nM and the AC50 (HTT mRNA; [3]) was 100 to 1000 nM. For the same molecule, the IC50 (HiBiT-tagged HTT protein) was 100 to 1000 nM, the “Effect on Cell Viability, K562” value (K562 cells) was “B (100-1000 nM)” and the IC50 (Target C) was 100 to 1000 nM.
In the case of `CNC1CCN(c2cnc3nc(-c4cc5cn(C)nc5c(C)c4O)ccc3n2)C1` (stereo not drawn) [Compound 192, 2,7-dimethyl-5-{2-[3-(methylamino)337pyrrolidine-1-yl]pyrido[2,3-b]pyrazin-6-yl}indazol-6-ol], the IC50 (HTT mRNA; [1]) is reported as 100 to 1000 nM, the IC50 (HTT mRNA; [2]) is reported as 100 to 1000 nM and the AC50 (HTT mRNA; [3]) is reported as 100 to 1000 nM. For the same molecule, the IC50 (HiBiT-tagged HTT protein) was 100 to 1000 nM, the “Effect on Cell Viability, K562” value (K562 cells) was “B (100-1000 nM)” and the IC50 (Target C) was 100 to 1000 nM.
With `CN[C@H]1CCN(c2cnc3nc(-c4cc5cn(C)nc5c(C)c4O)nc(OC)c3c2)C1` [Compound 212, 5-{4-methoxy-6-[(3S)-3-(methylamino)pyrrolidin-1-yl]pyrido[2,3-d]pyrimidin-2-yl}-2,7-dimethylindazol-6-ol] the IC50 (HTT mRNA; [1]) was under 100 nM, the IC50 (HTT mRNA; [2]) was under 100 nM and the AC50 (HTT mRNA; [3]) was 100 to 1000 nM. The IC50 (HiBiT-tagged HTT protein) was under 100 nM, the “Effect on Cell Viability, K562” value (K562 cells) was “A (<100 nM)” and the IC50 (Target C) was 100 to 1000 nM.
For `Cn1cc2cc(-c3ccc4cc(N5CC[C@H](NC(C)(C)C)C5)cnc4n3)c(O)cc2n1` (single isomer, unassigned) [Compound 200], the IC50 (HTT mRNA; [1]) was 1000 to 10000 nM, the IC50 (HTT mRNA; [2]) was 1000 to 10000 nM and the AC50 (HTT mRNA; [3]) was 1000 to 10000 nM. The IC50 (HiBiT-tagged HTT protein) was 1000 to 10000 nM, the “Effect on Cell Viability, K562” value (K562 cells) was “B (100-1000 nM)” and the IC50 (Target C) was 1000 to 10000 nM.
Work on `Cc1c(O)c(-c2cc(Cl)c3cc(N4C[C@@H](C)N[C@@H](C)C4)cnc3n2)cc2cn(C)nc12` [Compound 207, 5-{4-chloro-6-[(3R,5S)-3,5-dimethylpiperazin-1-yl]-1,8-naphthyridin-2-yl}-2,7-dimethylindazol-6-ol] yielded an AC50 (HTT mRNA; RT-qPCR, A673 or K562 cells, 24 hours treatment) of 100 to 1000 nM, an IC50 (HTT mRNA; RT-qPCR, A673 or K562 cells, 24 hours treatment, read-out: HTT CJ (IC50, decrease in CJ mRNA)) of under 100 nM and an IC50 (HTT mRNA; qPCR panel, read-out: HTT CJ (decrease in CJ mRNA levels, IC50)) of under 100 nM. The IC50 (HiBiT-tagged HTT protein) was under 100 nM, the “Effect on Cell Viability, K562” value (K562 cells) was “A (<100 nM)” and the IC50 (Target C) was 100 to 1000 nM.
